Experiment [1] deals with proteolytic activity in the fecal extract. Description: Fecal extract protease assay with labeled casein (silk proteins). Particulars: serial dilutions in 100 mM Tris-HCl pH 8.0, room temperature. The format is biochemical, infant. The procedure: Water soluble silk protein (SERICIN, Pentapharm AG, Basel, Switzerland) and hydrolyzed silk (CROSILK 10,000, Croda, Incorporated, Parsippany, N.J.) were individually shown to inhibit proteolytic activity in the fecal extract that has been implicated to contribute to diaper rash. Serial dilutions of the neat protein and hydrolysate were performed with 100 mM Tris-HCl pH 8.0 as the diluent. The silk protein concentrations were determined using a Macro BCA Protein Assay Reagent Kit (Pierce, Rockford, Ill.).
Fecal extract was prepared as described above for the examples of silk protein and zinc compositions. […] The reaction was initiated with the addition of 100 μL of the 2 μg/ml fecal extract. […] The reaction was run for 30 min. at room temperature and rates (RFU/min) from 10-20 minutes were calculated.

The test system of experiment [2] is EpiDerm™ 201 synthetic skin (keratinocytes), interleukin-1 alpha release. The text has this:
The synthetic skin, EpiDerm™ 201 (MatTek Corporation, Ashland, Mass.) contains keratinocytes that release interleukin-1 alpha (IL-1 alpha) when subjected to proteases in the fecal extract. When the IL-1 alpha was released, it diffused from the skin into the fluid below the EpiDerm™. Samples of this fluid were taken and analyzed for the presence of the IL-1 alpha. Higher levels of IL-1 alpha was indicative of greater skin irritation.
Prior to application onto the EpiDerm™, the fecal extract (10.4 μL) was pre-incubated for 30 minutes at room temperature with 250 mM zinc sulfate heptahydrate in water (2.6 μL). Water only and fecal extract only samples served as controls. After application of the samples to the EpiDerm™, 25 μL aliquots were removed from the underlying media at 8, 12, and 24 hours to test for the presence of the IL-1 alpha. The aliquots were directly added to a 1.5 mL micro-centrifuge tube containing 225 μL of filtered-sterilized 20 mM Tris-HCl, pH 8.0, 1% BSA buffer and stored at −80° C. After all samples were collected, IL-1 alpha levels were quantified using the R&D Systems Interleukin-1 alpha Quantikine Kit (R&D Systems, Minneapolis, Minn.).

Experiment [3] relates to proteolytic activity of infant urine. Conditions: 0-50 mM, pH 8.0, 37° C.
Method: The proteolytic activity of infant urine was measured using fluorescently-labeled casein.
Two (2) infant urine (100 μL) samples were added to wells of a 96 white plate (Dynex) containing 80 μL of 12.5 μg/ml solution of a fluorescent dye-labeled casein substrate (EnzChek Protease Assay Kit (E-6639)) in 100 mM Tris-HCl, pH 8.0, and allowed to incubate for 60 minutes at 37° C. […] Reaction of the infant urine with the casein substrate cleaves the fluorescent dye from the substrate. RFUs were collected using the Fluoroskan Ascent System with excitation and emission filters of 485 and 538 nm, respectively. Data were collected each minute for 60 minutes at 37° C. and rates (RFU/min) from 30-50 minutes were calculated for each zinc concentration. Using the uninhibited wells as 100% protease activity, percent of urine proteolytic activity remaining was determined for each concentration of zinc inhibitor (Inhibited Rate/Uninhibited rate* 100).
The test system of experiment [4] is proteolytic activity of fecal extract. Conditions: 0-1 mM emulsions, pH 8.0, room temperature. The procedure:
The supernatant was filtered through 0.22 micron cellulose acetate filters and stored at −80° C. until use.

Take SERICIN: the “fecal proteolytic activity (FIG. 13)” value in experiment [1] was “reduction of proteolytic activity with increasing concentrations”.

Turning to `O.O.O.O.O.O.O.O=S(=O)([O-])[O-].[Zn+2]` [zinc sulfate heptahydrate], in experiment [2] (0, 25, 50, 125 and 250 mM in 2.6 μL aliquot added to 10.4 μL fecal extract), the “inhibition of fecal extract activity on EpiDerm, concentration series (FIG. 12)” value is listed as “effectively inhibits the proteolytic activity of fecal extract in a dose-dependent manner”. Moreover, the “interleukin-1 alpha released into underlying media (FIG. 11)” value in experiment [2] (250 mM pre-incubated 30 min with fecal extract, relative to FE+water, 8, 12 and 24 hours) was “reduced the amount of interleukin-1 alpha released into the underlying media”. Besides, the “inhibition of casein hydrolysis by infant urine (FIG. 10)” value in experiment [3] was “effectively inhibited the hydrolysis of casein by infant urine in a dose-dependent manner”. Further, in experiment [4], the “inhibition of casein hydrolysis by fecal extract (FIG. 9)” value is on record as “effectively inhibited the hydrolysis of casein by the fecal extract in a dose-dependent manner”.

Values taken from patent US6503525B1, “Absorbent article which maintains or improves skin health” (Kimberly-Clark Worldwide, Inc., priority 1999, dated 2003).
